Experimental data reported in US10568939B2, “Composition and method for improving sleep duration and quality” (Board of Supervisors of Louisiana State University and …, priority 2016, dated 2020).

How the values were obtained:
[1] = Effect of individual components alone versus the novel combination on sleep; type: in vivo, human; conditions: component alone or novel combination
TNF-α = target: T1, TNF-α (Homo sapiens, UniProt P01375); assay: TNF-α level by ELISA, supernatants of LPS-treated HT-29 cell cultures; type: cell-based; conditions: HT-29 supernatants, EGCG 20, 35, 50 μM, FIG. 4
T1 construct: TNF-alpha levels in HT-29 cell culture treated with LPS; endogenous in cells; host or cells: HT-29 (culture supernatant)
Method: (§1) A series of in vitro tests were conducted, using levels of components that would be expected to approximate the concentrations that would be seen in vivo following oral consumption of 2 fluid ounces of the novel composition by a 70 kilogram individual.
(§2) • a. Inhibition of Janus kinase 3 (Jak3) by EGCG, CE, or a mixture of EGCG and CE. Jak3 is expressed solely in immune cells. Jak3 expression is an upstream event for the activation of TNF-α and subsequent cytokines such as IL-6. HT-29 colon cancer cells in T-75 flasks were stimulated by LPS (control). HT-29 cells in T-75 flasks were also stimulated by LPS and treated with EGCG (Treatment 1=20 μM (E1), Treatment 2=35 μM (E2), or Treatment 3=50 μM (E3)), CE (extract from 3 g (C1), 6 g (C2), or 10 g (C3) of light roasted chicory), or combinations of the respective low, medium, and high concentrations of EGCG and CE (E1C1, E2C2, or E3C3). C1, C2, or C3 concentrations approximated the levels that would be expected following consumption of 2 fluid ounces of the novel composition by a 70 kilogram individual. […] The effects of the treatments on histamine activity were determined by the inhibition of COX-2 expression. […] The effective concentrations of TNF-α, IL-1β or IL-6 in supernatants were calculated using a standard curve developed using known standards of TNF-α, IL-1β or IL-6. […]

IL-6 = target: T2, IL-6 (Homo sapiens, UniProt P05231); assay: IL-6 level by ELISA, supernatants of LPS-treated HT-29 cell cultures; type: cell-based; conditions: HT-29 supernatants, EGCG 20, 35, 50 μM, FIG. 6
T2 construct: IL-6 levels in HT-29 cell culture treated with LPS; endogenous in cells; host or cells: HT-29 (culture supernatant)
Method: as §1, §2

Janus kinase 3 (Jak3) = assay: Inhibition of Janus kinase 3 (Jak3) expression in LPS-stimulated HT-29 cells; type: cell-based; conditions: HT-29 cells stimulated by LPS; EGCG 20, 35, 50 μM; CE from 3, 6, 10 g light roasted chicory; combinations E1C1, E2C2, E3C3; triplicates; FIG. 2
Method: as §1, §2

COX-2 expression = assay: Anti-histamine activity: inhibition of COX-2 expression in histamine-treated HeLa cells; type: cell-based; conditions: 1 μmol/L histamine, 18 h, EGCG 20, 35, 50 μM, positive controls mepyramine maleate and JNJ-7777120, FIG. 3
Method: as §1, §2

IL-1β = target: T3, IL-1β (Homo sapiens, UniProt P01584); assay: IL-1β level by ELISA, supernatants of LPS-treated HT-29 cell cultures; type: cell-based; conditions: HT-29 supernatants, EGCG 20, 35, 50 μM, FIG. 5
T3 construct: IL-1β levels in HT-29 cell culture treated with LPS; endogenous in cells; host or cells: HT-29 (culture supernatant)
Method: as §1, §2

T3 sequence (P01584 117-269): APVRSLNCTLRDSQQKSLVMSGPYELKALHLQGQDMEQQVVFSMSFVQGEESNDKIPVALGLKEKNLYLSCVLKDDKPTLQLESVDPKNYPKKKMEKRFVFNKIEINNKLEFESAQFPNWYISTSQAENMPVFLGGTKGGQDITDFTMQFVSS
T2 sequence (P05231 30-212): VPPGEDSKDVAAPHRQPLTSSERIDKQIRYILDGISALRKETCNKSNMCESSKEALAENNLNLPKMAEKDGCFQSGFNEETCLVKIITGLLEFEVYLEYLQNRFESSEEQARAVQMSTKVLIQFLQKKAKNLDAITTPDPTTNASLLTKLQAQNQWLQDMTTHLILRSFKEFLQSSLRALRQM
T1 sequence (P01375 77-233 limits assumed): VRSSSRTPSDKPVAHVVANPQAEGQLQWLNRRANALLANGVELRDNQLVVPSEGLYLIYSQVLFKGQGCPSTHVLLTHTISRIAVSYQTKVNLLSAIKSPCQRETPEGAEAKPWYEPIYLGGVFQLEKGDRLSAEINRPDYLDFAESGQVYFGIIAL

Compound: CCNC(=O)CC[C@H](N)C(=O)O [Theanine]
- Sleep after awakening in the middle of the night [1]: does not improve sleep after awakening in the middle of the night
- Sleep onset, depth, efficiency, duration [1]: does not enhance sleep onset, depth, efficiency, or duration

Compound: O=C(O[C@@H]1Cc2c(O)cc(O)cc2O[C@@H]1c1cc(O)c(O)c(O)c1)c1cc(O)c(O)c(O)c1 [EGCG, Epigallocatechin gallate]
- TNF-α activity/level (TNF-α): inhibited the activity of each of TNF-α, IL-1β and IL-6 in a dose-dependent manner
- IL-6 activity/level (IL-6): inhibited the activity of each of TNF-α, IL-1β and IL-6 in a dose-dependent manner
- Jak3 expression (Janus kinase 3 (Jak3)): inhibited Jak3 expression in a dose-dependent manner
- COX-2 expression (anti-histamine activity) (COX-2 expression): inhibited COX-2 expression in a dose-dependent manner, although not as strongly as did the positive controls
- IL-1β activity/level (IL-1β): inhibited the activity of each of TNF-α, IL-1β and IL-6 in a dose-dependent manner
- Sleep after awakening in the middle of the night [1]: does not improve sleep after awakening in the middle of the night
- Sleep onset, depth, efficiency, duration [1]: does not enhance sleep onset, depth, efficiency, or duration
